Laboratory results published in the supplement of paper PMC10307832.

What was measured:
Assay in all cases: relative viability (nuclei count vs DMSO), 5 days (fraction); higher = more cells survive
Dinaciclib + Palbociclib = compound: CCc1cnn2c(NCc3ccc[n+]([O-])c3)cc(N3CCCC[C@H]3CCO)nc12 [Dinaciclib] + CC(=O)c1c(C)c2cnc(Nc3ccc(N4CCNCC4)cn3)nc2n(C2CCCC2)c1=O [Palbociclib] (partner 0.5 µM)
Procedure, shortened: (§1)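 Relative viability equals treated-well nuclei counts divided by vehicle-well nuclei counts. Counts came from 4× images of lung cancer cell lines grown in 1536-well plates for 5 days after pin-tool dosing on the day after seeding. Dosing used one drug alone or a fixed anchor-drug dose plus five library-drug doses (not always all listed) in √10 steps, and values are medians of duplicate plates.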

Dinaciclib + Bortezomib = compound: CCc1cnn2c(NCc3ccc[n+]([O-])c3)cc(N3CCCC[C@H]3CCO)nc12 [Dinaciclib] + CC(C)C[C@H](NC(=O)[C@H](Cc1ccccc1)NC(=O)c1cnccn1)B(O)O [Bortezomib] (partner 0.002 µM)
Procedure, shortened: as §1

Dinaciclib + Foretinib = compound: CCc1cnn2c(NCc3ccc[n+]([O-])c3)cc(N3CCCC[C@H]3CCO)nc12 [Dinaciclib] + COc1cc2c(Oc3ccc(NC(=O)C4(C(=O)Nc5ccc(F)cc5)CC4)cc3F)ccnc2cc1OCCCN1CCOCC1 [Foretinib] (partner 0.25 µM)
Procedure, shortened: as §1

Dinaciclib + Pemetrexed = compound: CCc1cnn2c(NCc3ccc[n+]([O-])c3)cc(N3CCCC[C@H]3CCO)nc12 [Dinaciclib] + Nc1nc2[nH]cc(CCc3ccc(C(=O)N[C@@H](CCC(=O)O)C(=O)O)cc3)c2c(=O)[nH]1 [Pemetrexed] (partner 0.2 µM)
Procedure, shortened: as §1

Dinaciclib + Decitabine = compound: CCc1cnn2c(NCc3ccc[n+]([O-])c3)cc(N3CCCC[C@H]3CCO)nc12 [Dinaciclib] + Nc1ncn([C@H]2C[C@H](O)[C@@H](CO)O2)c(=O)n1 [Decitabine] (partner 2 µM)
Procedure, shortened: as §1

Cell Line | relative viability (Dinaciclib + Palbociclib; first compound 0.009487 µM) | relative viability (Dinaciclib + Palbociclib; first compound 0.03 µM) | relative viability (Dinaciclib + Palbociclib; first compound 0.09487 µM) | relative viability (Dinaciclib + Palbociclib; first compound 0.3 µM) | relative viability (Dinaciclib + Bortezomib; first compound 0.009487 µM) | relative viability (Dinaciclib + Bortezomib; first compound 0.03 µM) | relative viability (Dinaciclib + Bortezomib; first compound 0.09487 µM) | relative viability (Dinaciclib + Bortezomib; first compound 0.3 µM) | relative viability (Dinaciclib + Foretinib; first compound 0.009487 µM) | relative viability (Dinaciclib + Foretinib; first compound 0.03 µM) | relative viability (Dinaciclib + Foretinib; first compound 0.09487 µM) | relative viability (Dinaciclib + Foretinib; first compound 0.3 µM) | relative viability (Dinaciclib + Pemetrexed; first compound 0.009487 µM) | relative viability (Dinaciclib + Pemetrexed; first compound 0.03 µM) | relative viability (Dinaciclib + Pemetrexed; first compound 0.09487 µM) | relative viability (Dinaciclib + Pemetrexed; first compound 0.3 µM) | relative viability (Dinaciclib + Decitabine; first compound 0.009487 µM) | relative viability (Dinaciclib + Decitabine; first compound 0.03 µM) | relative viability (Dinaciclib + Decitabine; first compound 0.09487 µM) | relative viability (Dinaciclib + Decitabine; first compound 0.3 µM)
201T | 0.354 | 0.285 | 0.231 | 0.228 | 1.15 | 0.718 | 0.321 | 0.281 | 1.19 | 0.174 | 0.171 | 0.15 | 0.317 | 0.311 | 0.206 | 0.187 | 0.943 | 0.767 | 0.168 | 0.209
A549 | – | – | – | – | – | – | – | – | 0.952 | 0.0544 | 0.0214 | 0.0246 | – | – | – | – | 0.293 | 0.205 | 0.0304 | 0.0308
A-427 | 0.437 | 0.142 | 0.126 | 0.127 | 0.969 | 0.487 | 0.0789 | 0.0623 | 0.955 | 0.117 | 0.0874 | 0.0871 | 0.883 | 0.156 | 0.101 | 0.112 | 0.508 | 0.153 | 0.119 | 0.116
ABC-1 | 0.648 | 0.334 | 0.212 | 0.246 | 0.231 | 0.179 | 0.167 | 0.157 | 0.876 | 0.166 | 0.126 | 0.106 | – | – | – | – | 0.963 | 0.338 | 0.297 | 0.237
BEN | 0.458 | 0.386 | 0.287 | 0.296 | 0.817 | 0.497 | 0.159 | 0.247 | 0.866 | 0.845 | 0.153 | 0.176 | 1.07 | 0.501 | 0.23 | 0.274 | 0.88 | 0.572 | 0.245 | 0.313
CAL-12T | 0.121 | 0.137 | 0.108 | 0.128 | 0.484 | 0.203 | 0.142 | 0.127 | 1.07 | 0.105 | 0.13 | 0.116 | 0.771 | 0.141 | 0.133 | 0.13 | – | – | – | –
COR-L23 | 0.222 | 0.0905 | 0.0689 | 0.0651 | 0.646 | 0.0952 | 0.0792 | 0.0558 | 0.871 | 0.118 | 0.0996 | 0.0936 | 0.184 | 0.21 | 0.112 | 0.093 | 0.388 | 0.114 | 0.0933 | 0.0952
COR-L 105 | 0.414 | 0.311 | 0.296 | 0.309 | 0.61 | 0.192 | 0.219 | 0.212 | 1.17 | 0.644 | 0.247 | 0.259 | 0.91 | 0.291 | 0.348 | 0.295 | 0.618 | 0.408 | 0.304 | 0.278
ChaGo-K-1 | 0.971 | 0.239 | 0.118 | 0.114 | 0.637 | 0.222 | 0.178 | 0.187 | 0.918 | 0.245 | 0.12 | 0.14 | 0.257 | 0.216 | 0.149 | 0.119 | 0.531 | 0.287 | 0.138 | 0.128
